Measurements from patent US20240239792A1, “MODULATORS OF BCL-2 OR BCL-2/BCL-XL AND USES THEREOF” (APPICINE THERAPEUTICS (HK) LIMITED, priority 2021, published 2024).
pIC50: −log10 of the molar value.

Key:
[1] = biological target: T1, BCL-XL (Homo sapiens, UniProt Q07817); experiment: HTRF BCL-XL/BAK assay (Cisbio); assay type: binding; conditions: recombinant human Tag1-BCL-XL 2 nM, Tag2-BAK 5 nM
T1 construct: purchased Cisbio 63ADK000CB04PEG
Method: (§1) Then the pre-mixed anti-Tag1-Eu^3+ and anti-tag2-XL665 were added to the plate and further incubated at room temperature for another 2 hours. The signals ([…]) were read on Envision 2104 instrument. The IC50 for each compound was derived from fitting the signal of 665/615 nM to the increasing compound concentration.
(§2) Using the above assays, the following compounds were tested.

[2] = biological target: T2, BCL-2 (Homo sapiens, UniProt P10415); experiment: HTRF BCL-2/BAK assay (Cisbio); assay type: binding; conditions: recombinant human Tag1-BCL-2 2 nM, Tag2-BAK 10 nM
T2 construct: purchased Cisbio 63ADK000CB01PEG
Method: as §1, §2

[3] = tested on: DOHH2 cells; experiment: CellTiter-Glo cell proliferation assay, DOHH2 cells; assay type: cell-based; conditions: Homo sapiens, DOHH-2, 72 hours
Method in brief: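 DOHH2 cells seeded in DMEM + 10% FBS, exposed to serially diluted compound for 72 h at 37 °C, 5% CO2. Viability read by CellTiter-Glo luminescence; GI50 calculated.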

T1 sequence (Q07817 whole entry): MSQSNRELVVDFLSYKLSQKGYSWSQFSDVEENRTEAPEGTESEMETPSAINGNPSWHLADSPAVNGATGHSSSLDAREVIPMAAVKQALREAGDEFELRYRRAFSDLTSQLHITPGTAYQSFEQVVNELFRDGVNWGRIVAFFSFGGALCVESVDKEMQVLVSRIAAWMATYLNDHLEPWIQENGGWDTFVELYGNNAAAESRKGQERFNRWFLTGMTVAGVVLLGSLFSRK
T2 sequence (P10415 whole entry): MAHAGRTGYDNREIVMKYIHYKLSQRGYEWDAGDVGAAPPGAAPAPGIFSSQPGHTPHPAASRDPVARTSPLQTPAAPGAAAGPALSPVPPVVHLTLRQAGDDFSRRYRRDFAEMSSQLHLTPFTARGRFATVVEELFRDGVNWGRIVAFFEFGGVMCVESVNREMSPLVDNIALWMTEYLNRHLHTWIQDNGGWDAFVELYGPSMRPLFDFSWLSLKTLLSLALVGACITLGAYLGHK

Compound | pIC50 [1] | pIC50 [2] | GI50 [3] [nM]
O=C(NS(=O)(=O)c1ccc(NCC2CCOCC2)c([N+](=O)[O-])c1)c1ccc(N2CCN(C3CCCCc4c(C5=CCCC5)cccc43)CC2)cc1Oc1cnc2[nH]ccc2c1 (stereo not drawn) [Compound 47, 2-((1H-pyrrolo[2,3-b]pyridin-5-yl)oxy)-4-(4-(1-(cyclopent-1-en-1-yl)-6,7,8,9-tetrahydro-5H-benzo[7]annulen-5-yl)piperazin-1-yl)-N-((3-nitro-4-(((tetrahydro-2H-pyran-4-yl)methyl)amino)phenyl)sulfonyl)benzamide] | < 5.70 | 6.70 to 7.70 | > 5000
O=C(NS(=O)(=O)c1ccc(NCC2CCOCC2)c([N+](=O)[O-])c1)c1ccc(N2CCN(C3CCCCc4c(-c5cccnc5)cccc43)CC2)cc1Oc1cnc2[nH]ccc2c1 (stereo not drawn) [Compound 49, 2-((1H-pyrrolo[2,3-b]pyridin-5-yl)oxy)-N-((3-nitro-4-(((tetrahydro-2H-pyran-4-yl)methyl)amino)phenyl)sulfonyl)-4-(4-(1-(pyridin-3-yl)-6,7,8,9-tetrahydro-5H-benzo[7]annulen-5-yl)piperazin-1-yl)benzamide] | 5.70 to 6.70 | > 7.70 | 500 to 5000
C=C(C)c1cccc2c1CCCCC2N1CCN(c2ccc(C(=O)NS(=O)(=O)c3ccc(NCC4CCOCC4)c([N+](=O)[O-])c3)c(Oc3cnc4[nH]ccc4c3)c2)CC1 (stereo not drawn) [Compound 50, 2-((1H-pyrrolo[2,3-b]pyridin-5-yl)oxy)-N-((3-nitro-4-(((tetrahydro-2H-pyran-4-yl)methyl)amino)phenyl)sulfonyl)-4-(4-(1-(prop-1-en-2-yl)-6,7,8,9-tetrahydro-5H-benzo[7]annulen-5-yl)piperazin-1-yl)benzamide] | 5.70 to 6.70 | > 7.70 | 50 to 500
CC(C)c1cccc2c1CCCCC2N1CCN(c2ccc(C(=O)NS(=O)(=O)c3ccc(NCC4CCOCC4)c([N+](=O)[O-])c3)c(Oc3cnc4[nH]ccc4c3)c2)CC1 (stereo not drawn) [Compound 51, 2-((1H-pyrrolo[2,3-b]pyridin-5-yl)oxy)-4-(4-(1-isopropyl-6,7,8,9-tetrahydro-5H-benzo[7]annulen-5-yl)piperazin-1-yl)-N-((3-nitro-4-(((tetrahydro-2H-pyran-4-yl)methyl)amino)phenyl)sulfonyl)benzamide] | 5.70 to 6.70 | > 7.70 | 500 to 5000
O=C(NS(=O)(=O)c1ccc(NCC2CCOCC2)c([N+](=O)[O-])c1)c1ccc(N2CCN(C3CCCCc4c(-c5cn[nH]c5)cccc43)CC2)cc1Oc1cnc2[nH]ccc2c1 (stereo not drawn) [Compound 52, 4-(4-(1-(1H-pyrazol-4-yl)-6,7,8,9-tetrahydro-5H-benzo[7]annulen-5-yl)piperazin-1-yl)-2-((1H-pyrrolo[2,3-b]pyridin-5-yl)oxy)-N-((3-nitro-4-(((tetrahydro-2H-pyran-4-yl)methyl)amino)phenyl)sulfonyl)benzamide] | < 5.70 | 6.70 to 7.70 | > 5000
O=C(NS(=O)(=O)c1ccc(NCC2CCn3ccnc3C2)c([N+](=O)[O-])c1)c1ccc(N2CCN(C3CCCCc4c(Cl)cccc43)CC2)cc1Oc1cnc2[nH]ccc2c1 (stereo not drawn) [Compound 53, 2-((1H-pyrrolo[2,3-b]pyridin-5-yl)oxy)-4-(4-(1-chloro-6,7,8,9-tetrahydro-5H-benzo[7]annulen-5-yl)piperazin-1-yl)-N-((3-nitro-4-(((5,6,7,8-tetrahydroimidazo[1,2-a]pyridin-7-yl)methyl)amino)phenyl)sulfonyl)benzamide] | > 7.70 | > 7.70 | 50 to 500
O=C(NS(=O)(=O)c1ccc(NCC2CCOCC2)c([N+](=O)[O-])c1)c1ccc(N2CCN(C3CCCCc4c(-c5ccn[nH]5)cccc43)CC2)cc1Oc1cnc2[nH]ccc2c1 (stereo not drawn) [Compound 54, 4-(4-(1-(1H-pyrazol-3-yl)-6,7,8,9-tetrahydro-5H-benzo[7]annulen-5-yl)piperazin-1-yl)-2-((1H-pyrrolo[2,3-b]pyridin-5-yl)oxy)-N-((3-nitro-4-(((tetrahydro-2H-pyran-4-yl)methyl)amino)phenyl)sulfonyl)benzamide] | < 5.70 | > 7.70 | 500 to 5000
CS(=O)(=O)Nc1cccc2c1CCCCC2N1CCN(c2ccc(C(=O)NS(=O)(=O)c3ccc(NCC4CCOCC4)c([N+](=O)[O-])c3)c(Oc3cnc4[nH]ccc4c3)c2)CC1 (stereo not drawn) [Compound 56, 2-((1H-pyrrolo[2,3-b]pyridin-5-yl)oxy)-4-(4-(1-(methylsulfonamido)-6,7,8,9-tetrahydro-5H-benzo[7]annulen-5-yl)piperazin-1-yl)-N-((3-nitro-4-(((tetrahydro-2H-pyran-4-yl)methyl)amino)phenyl)sulfonyl)benzamide] | < 5.70 | 6.70 to 7.70 | > 5000
CC(CO)c1cccc2c1CCCCC2N1CCN(c2ccc(C(=O)NS(=O)(=O)c3ccc(NCC4CCOCC4)c([N+](=O)[O-])c3)c(Oc3cnc4[nH]ccc4c3)c2)CC1 (stereo not drawn) [Compound 61, 2-((1H-pyrrolo[2,3-b]pyridin-5-yl)oxy)-4-(4-(1-(1-hydroxypropan-2-yl)-6,7,8,9-tetrahydro-5H-benzo[7]annulen-5-yl)piperazin-1-yl)-N-((3-nitro-4-(((tetrahydro-2H-pyran-4-yl)methyl)amino)phenyl)sulfonyl)benzamide] | 5.70 to 6.70 | > 7.70 | 500 to 5000
CCP(=O)(CC)c1cccc2c1CCCCC2N1CCN(c2ccc(C(=O)NS(=O)(=O)c3ccc(NCC4CCOCC4)c([N+](=O)[O-])c3)c(Oc3cnc4[nH]ccc4c3)c2)CC1 (stereo not drawn) [Compound 62, 2-((1H-pyrrolo[2,3-b]pyridin-5-yl)oxy)-4-(4-(1-(diethylphosphoryl)-6,7,8,9-tetrahydro-5H-benzo[7]annulen-5-yl)piperazin-1-yl)-N-((3-nitro-4-(((tetrahydro-2H-pyran-4-yl)methyl)amino)phenyl)sulfonyl)benzamide] | < 5.70 | 6.70 to 7.70 | > 5000
CP(C)(=O)c1cccc2c1CCCCC2N1CCN(c2ccc(C(=O)NS(=O)(=O)c3ccc(NCC4CCOCC4)c([N+](=O)[O-])c3)c(Oc3cnc4[nH]ccc4c3)c2)CC1 (stereo not drawn) [Compound 63, 2-((1H-pyrrolo[2,3-b]pyridin-5-yl)oxy)-4-(4-(1-(dimethylphosphoryl)-6,7,8,9-tetrahydro-5H-benzo[7]annulen-5-yl)piperazin-1-yl)-N-((3-nitro-4-(((tetrahydro-2H-pyran-4-yl)methyl)amino)phenyl)sulfonyl)benzamide] | < 5.70 | 6.70 to 7.70 | > 5000
O=C(NS(=O)(=O)c1ccc(NCC2COC3OCCC23)c([N+](=O)[O-])c1)c1ccc(N2CCN(C3CCCCc4c(Cl)cccc43)CC2)cc1Oc1cnc2[nH]ccc2c1 (stereo not drawn) [Compound 64, 2-((1H-pyrrolo[2,3-b]pyridin-5-yl)oxy)-4-(4-(1-chloro-6,7,8,9-tetrahydro-5H-benzo[7]annulen-5-yl)piperazin-1-yl)-N-((4-(((hexahydrofuro[2,3-b]furan-3-yl)methyl)amino)-3-nitrophenyl)sulfonyl)benzamide] | 6.70 to 7.70 | > 7.70 | 50 to 500
CC(=O)N1CCN(CCNc2ccc(S(=O)(=O)NC(=O)c3ccc(N4CCN([C@@H]5CCCCc6c(Br)cccc65)CC4)cc3Oc3cnc4[nH]ccc4c3)cc2[N+](=O)[O-])CC1 [Compound 65, (R)-2-((1H-pyrrolo[2,3-b]pyridin-5-yl)oxy)-N-((4-((2-(4-acetylpiperazin-1-yl)ethyl)amino)-3-nitrophenyl)sulfonyl)-4-(4-(1-bromo-6,7,8,9-tetrahydro-5H-benzo[7]annulen-5-yl)piperazin-1-yl)benzamide] | > 7.70 | > 7.70 | < 50
O=C(NS(=O)(=O)c1ccc(NCC2CCOCC2)c([N+](=O)[O-])c1)c1ccc(N2CCN([C@@H]3CCCCc4c(Br)cccc43)CC2)cc1Oc1cnc2[nH]ccc2c1 [Compound 66, (R)-2-((1H-pyrrolo[2,3-b]pyridin-5-yl)oxy)-4-(4-(1-bromo-6,7,8,9-tetrahydro-5H-benzo[7]annulen-5-yl)piperazin-1-yl)-N-((3-nitro-4-(((tetrahydro-2H-pyran-4-yl)methyl)amino)phenyl)sulfonyl)benzamide] | 6.70 to 7.70 | > 7.70 | < 50
O=C(NS(=O)(=O)c1ccc(NCC2CCC3(CC2)COC3)c([N+](=O)[O-])c1)c1ccc(N2CCN([C@@H]3CCCCc4c(Br)cccc43)CC2)cc1Oc1cnc2[nH]ccc2c1 [Compound 67, (R)-2-((1H-pyrrolo[2,3-b]pyridin-5-yl)oxy)-N-((4-(((2-oxaspiro[3.5]nonan-7-yl)methyl)amino)-3-nitrophenyl)sulfonyl)-4-(4-(1-bromo-6,7,8,9-tetrahydro-5H-benzo[7]annulen-5-yl)piperazin-1-yl)benzamide] | 6.70 to 7.70 | > 7.70 | < 50
O=C(NS(=O)(=O)c1ccc(NCCN2CCC3(CC2)COC3)c([N+](=O)[O-])c1)c1ccc(N2CCN([C@@H]3CCCCc4c(Br)cccc43)CC2)cc1Oc1cnc2[nH]ccc2c1 [Compound 68, (R)-2-((1H-pyrrolo[2,3-b]pyridin-5-yl)oxy)-N-((4-((2-(2-oxa-7-azaspiro[3.5]nonan-7-yl)ethyl)amino)-3-nitrophenyl)sulfonyl)-4-(4-(1-bromo-6,7,8,9-tetrahydro-5H-benzo[7]annulen-5-yl)piperazin-1-yl)benzamide] | > 7.70 | > 7.70 | < 50
